According to patent US20210322397A1, “METHOD TO PREVENT AND TREAT GINGIVAL RECESSION BY CALCIUM CHANNEL BLOCKERS, ANGIOTENSIN CONVERTING ENZYME INHIBITORS, AND ANGIOTENSIN RECEPTOR BLOCKERS” (priority 2018, published 2021):
Where two headings read alike, the source gives them in different places.

Key:
[1] = test system: gingival recession; conditions: patient with gingival recession throughout the mouth
From the text: (§1) A patient is diagnosed with gingival recession throughout the mouth.
A patient is diagnosed with gingival recession throughout the mouth. A composition comprising the ACE inhibitor enalapril is directly applied to the tissue of the gum on one side of the mouth while the other side is left untreated.
A patient is diagnosed with gingival recession throughout the mouth. A composition comprising the angiotensin receptor blocker losartan is directly applied to the tissue of the gum on one side of the mouth while the other side is left untreated.
as §1
A patient is diagnosed with gingival recession throughout the mouth. A composition comprising the ACE inhibitor enalapril is administered by injection into the tissue of the gum on one side of the mouth while the other side is left untreated.
A patient is diagnosed with gingival recession throughout the mouth. A composition comprising the angiotensin receptor blocker losartan is administered by injection into the tissue of the gum on one side of the mouth while the other side is left untreated.

[2] = test system: gingival recession; conditions: patient previously successfully treated, after a period of time
Experimental: A composition comprising the ACE inhibitor enalapril is directly applied to the tissue of the gum on one side of the mouth while the other side is left untreated.
A composition comprising the angiotensin receptor blocker losartan is directly applied to the tissue of the gum on one side of the mouth while the other side is left untreated.
A composition comprising the ACE inhibitor enalapril is administered by injection into the tissue of the gum on one side of the mouth while the other side is left untreated.
A composition comprising the angiotensin receptor blocker losartan is administered by injection into the tissue of the gum on one side of the mouth while the other side is left untreated.

[3] = composition administered by injection into the tissue of the gum on one side
[4] = composition directly applied to the tissue of the gum on one side

SMILES	symptoms of gingival recession, treated side versus untreated side [1, 3]	symptoms of gingival recession, treated side versus untreated side [1, 4]	recurrence of symptoms of gingival recession, treated side versus untreated side [2, 3]	recurrence of symptoms of gingival recession, treated side versus untreated side [2, 4]
CCOC(=O)[C@H](CCc1ccccc1)N[C@@H](C)C(=O)N1CCC[C@H]1C(=O)O [enalapril]	reduced symptoms of gingival recession	reduced symptoms of gingival recession	free of symptoms of gingival recession	free of symptoms of gingival recession
CCCCc1nc(Cl)c(CO)n1Cc1ccc(-c2ccccc2-c2nn[nH]n2)cc1 [losartan]	reduced symptoms of gingival recession	reduced symptoms of gingival recession	free of symptoms of gingival recession	free of symptoms of gingival recession
